Legend:
[1] = Stability in biological media: fetal bovine serum; assay type: in vitro ADME; settings: 10% fetal bovine serum, 50 μg/ml, 37° C.
AKT1 PH-domain = target: T1, AKT1 PH-domain (Homo sapiens, UniProt P31749); assay: SPR binding assay (Biacore T100), AKT1 PH-domain; settings: Table 6; read-out: AKT KD
T1 construct: The PH-domain His-fusion proteins (CNK1 and AKT1) were expressed and immobilized on a NTA chip; made in house
Method in brief: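 His-tagged AKT1 PH domain immobilized on NTA chip to ≤10,000 RU, Biacore T100. Small-molecule analytes injected at 50 μM to 0.010 μM, 30 μL/min, with 1-5% (v/v) DMSO in samples and running buffer.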

PH-domain of PDPK1 = target: T2, PH-domain of PDPK1 (Homo sapiens, UniProt O15530); assay: SPR binding to expressed PH-domain of PDPK1
T2 construct: made in house
T2 sequence (O15530 459-550 limits assumed): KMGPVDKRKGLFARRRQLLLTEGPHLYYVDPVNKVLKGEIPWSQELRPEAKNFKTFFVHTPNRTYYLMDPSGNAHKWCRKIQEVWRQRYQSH
Protocol: In embodiments, the binding of identified compounds to the crystal structures of other PH-domain signaling proteins, AKT, PDPK1, Btk, and Tiam1 can be predicted. In such embodiments, the Kds exceed about 100 μM. In other embodiments, SPR can measure the binding of identified compounds to the expressed PH-domains of AKT, PDPK1 and Tiam1. […] Thus, the identified compounds appear have, at least, about 50 to about 100 fold selectivity for CNKSR1 compared to the other PH-domains studied.
A commercially available docking package, GOLD (GOLD [3.2], CCDC: Cambridge, UK, 2007) was used to evaluate the docking of compounds 1-7 into the binding pocket, see e.g. Table 5. Other docking was performed using modeling algorithms with state-of-the-art commercial drug discovery software (Schrodinger suite). GLIDE was chosen as the docking algorithm used to select and optimize compounds, providing a GlideScore as a rough estimate of binding affinity that was used to rank and select the best compounds. Additionally, ligand-based approaches provided an alternative to structure based drug discovery. Ligand-based virtual screening methodologies can take into account shape and electrostatics (like ROCS) and the pharmacophoric features (acceptor, donor, hydrophobic, aromatic, etc.) of its functional groups. […]

[2] = target: T3, membrane colocalisation of CNKSR1 and mutant-KRas (Homo sapiens, UniProt Q969H4); assay: Confocal imaging of CNKSR1 / mutant KRas colocalisation; assay type: cell-based; settings: FIG. 12
T3 construct: fluorescent protein (GFP or mRFP); expressed in transfected cells; host or cells: HEK293T
T3 sequence (Q969H4 1-720): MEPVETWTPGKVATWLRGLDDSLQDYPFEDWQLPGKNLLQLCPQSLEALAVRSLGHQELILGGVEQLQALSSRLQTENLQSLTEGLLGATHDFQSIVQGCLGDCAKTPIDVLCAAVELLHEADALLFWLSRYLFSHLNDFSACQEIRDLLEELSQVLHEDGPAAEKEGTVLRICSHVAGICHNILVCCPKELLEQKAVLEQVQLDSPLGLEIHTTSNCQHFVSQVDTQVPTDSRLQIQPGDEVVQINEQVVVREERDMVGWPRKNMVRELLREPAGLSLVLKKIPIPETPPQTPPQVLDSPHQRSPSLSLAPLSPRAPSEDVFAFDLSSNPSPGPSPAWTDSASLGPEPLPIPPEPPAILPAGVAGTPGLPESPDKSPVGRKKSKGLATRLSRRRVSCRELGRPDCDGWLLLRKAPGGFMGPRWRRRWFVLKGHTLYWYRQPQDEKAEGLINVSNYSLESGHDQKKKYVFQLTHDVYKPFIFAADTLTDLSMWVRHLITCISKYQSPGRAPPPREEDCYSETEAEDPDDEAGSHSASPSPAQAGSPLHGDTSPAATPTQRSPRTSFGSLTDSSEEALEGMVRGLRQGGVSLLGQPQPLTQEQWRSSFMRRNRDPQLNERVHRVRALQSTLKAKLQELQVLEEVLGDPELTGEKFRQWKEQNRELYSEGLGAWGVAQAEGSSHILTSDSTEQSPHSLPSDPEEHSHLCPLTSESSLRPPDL
Protocol: HEK293T cells were co-transfected with CNK and either wild type or G12D mutant KRAS. Twenty-four hours post-transfection, cells were seeded on glass coverslips and allowed to grow a further 24 h and then serum deprived overnight. Cells were fixed with 4% (w/v) paraformaldehyde pH 8.0 for 20 min at room temperature. Following 6-7 washes with PBS (pH 8.0) the coverslip was mounted onto a slide with mounting medium (0.1% p-phenylenediamine/75% glycerol in PBS at pH 7.5-8.0). Confocal laser scanning microscopy was performed with a Leica SP5 confocal microscope system with 63× oil-immersion objective (numerical aperture NA=1.4), a line scan speed of 600 Hz, with image size of 1024×1024 pixels. GFP was excited with an argon-visible light laser tuned to 488 nm, mRFP were excited with a […] tuned to 543 nm GFP and RFP fluorescence emissions were collected using a photomultiplier tube via 514/10 nm and 595/10 nm band selections respectively.

PH-domain of CNKSR1 = target: T4, PH-domain of CNKSR1 (Homo sapiens, UniProt Q969H4); assay: SPR binding (Biacore 2000) to CNKSR1 PH-domain, initial hits; settings: Table 5
T4 sequence (Q969H4 403-502 limits assumed): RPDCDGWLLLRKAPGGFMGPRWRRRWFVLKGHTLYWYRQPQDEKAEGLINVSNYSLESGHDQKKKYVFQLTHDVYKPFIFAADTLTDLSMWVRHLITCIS
Protocol: In embodiments, a homology model for the PH-domain of CNSKR1 based on known PH-domain crystal structures can be developed. The docking program PHuDock® can be used to identify potential inhibitors of CNKSR1. […] The binding of the compounds to the expressed PH-domain of CNKSR1 (KDobs) can be measured by surface plasmon resonance (SPR) spectroscopy.
Other docking was performed using modeling algorithms with state-of-the-art commercial drug discovery software (Schrodinger suite). […] Additionally, ligand-based approaches provided an alternative to structure based drug discovery. Ligand-based virtual screening methodologies can take into account shape and electrostatics (like ROCS) and the pharmacophoric features (acceptor, donor, hydrophobic, aromatic, etc.) of its functional groups. […] SPR interaction analyses of all other compounds was undertaken using a Biacore T100 with Control and Evaluation software kit.

[3] = Stability in biological media: mouse plasma; assay type: in vitro ADME; settings: 50 μg/ml, 37° C.

T1 sequence (P31749 5-108 limits assumed): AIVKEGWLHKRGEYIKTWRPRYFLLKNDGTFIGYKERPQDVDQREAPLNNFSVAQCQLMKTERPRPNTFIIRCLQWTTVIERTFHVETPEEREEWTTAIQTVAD

CCOC(=O)Cc1nn(Cc2nc(-c3ccc(C)cc3)cs2)c(=O)c2ccccc12 [Compound 7]
Half life [1]: 13.2 h
Kd (AKT1 PH-domain): 17.3 µM
SPR binding to PH-domain of PDPK1 (PH-domain of PDPK1): No measurable binding
membrane colocalisation of CNKSR1 and mutant-KRas at the plasma membrane [2]: blocking
total mutant KRas protein in the cell [2]: lower
Kd (PH-domain of CNKSR1): 1.8 ± 0.6 µM
Half life [3]: 6.3 min

From patent publication US9340532B2, “Methods and compositions for inhibiting CNKSR1” (PHUSIS THERAPEUTICS, INC., priority 2012, dated 2016)
